# Source: PMC9270327 (Communications Biology, 2022)
# Like-named read-outs stand apart in the source and are kept apart here.
# What was measured:
# [1] = test system: SARS-CoV-2 Beta (B.1.351), Caco-2 cells; assay type: cell-based; conditions: for SARS-CoV-2 infection, Mean (0 nM = 100): Fig. 6d, VOC Beta
# [2] = biological target: TMPRSS2 (Homo sapiens, UniProt O15393); assay: Cell culture medium stability: residual TMPRSS2 inhibition after incubation in medium
# Protocol: The activity of the compounds against the recombinant human enzymes was determined in enzyme inhibition assays. […] The measurements were performed on a Tecan infinite® M1000 and the fluorescence intensity was measured by exciting the AMC fluorophore at 380 nm wavelength and recording emission at 460 nm wavelength. […] Fluorescence intensities and absorption were measured every 2 min for 2 h or as endpoint after 2 h. […] To determine the IC50 values, the concentration-response data were plotted with the program GraphPad prism version 8.4.2 (San Diego, California) and a nonlinear regression fit with the equation [Inhibitor] vs. normalized response was applied. The inhibitory constant Ki was calculated from the IC50 values using the Cheng–Prusoff equation (Ki = IC50/[S]/KM) for competitive reversible inhibitors[66].
# The stability of the inhibitors was measured according to a modified procedure from ref. [67]. […] At indicated timepoints, 100 µL samples were taken and mixed with 200 µL of ethanol to precipitate proteins. […] The supernatant was aspirated and analyzed using analytical HPLC. The residual inhibitory constants Ki after incubation was assessed by mixing serial dilutions of the inhibitor with recombinant TMPRSS2 as described above.
# were mixed with recombinant TMPRSS2, followed by the addition of the fluorogenic reference
# Shown are the means ± SD of n=1 experiment performed in triplicates.
# [3] = biological target: T1, recombinant human matriptase (Homo sapiens, UniProt Q9Y5Y6); assay: Enzyme inhibition assay with purified matriptase (Ki, dose-response); assay type: biochemical; conditions: for matriptase activity, Mean (Fig. 2b): normalized, 0 nM = 100
# T1 construct: purchased R&D Systems (Minneapolis, MN, USA)
# T1 sequence (Q9Y5Y6 1-855): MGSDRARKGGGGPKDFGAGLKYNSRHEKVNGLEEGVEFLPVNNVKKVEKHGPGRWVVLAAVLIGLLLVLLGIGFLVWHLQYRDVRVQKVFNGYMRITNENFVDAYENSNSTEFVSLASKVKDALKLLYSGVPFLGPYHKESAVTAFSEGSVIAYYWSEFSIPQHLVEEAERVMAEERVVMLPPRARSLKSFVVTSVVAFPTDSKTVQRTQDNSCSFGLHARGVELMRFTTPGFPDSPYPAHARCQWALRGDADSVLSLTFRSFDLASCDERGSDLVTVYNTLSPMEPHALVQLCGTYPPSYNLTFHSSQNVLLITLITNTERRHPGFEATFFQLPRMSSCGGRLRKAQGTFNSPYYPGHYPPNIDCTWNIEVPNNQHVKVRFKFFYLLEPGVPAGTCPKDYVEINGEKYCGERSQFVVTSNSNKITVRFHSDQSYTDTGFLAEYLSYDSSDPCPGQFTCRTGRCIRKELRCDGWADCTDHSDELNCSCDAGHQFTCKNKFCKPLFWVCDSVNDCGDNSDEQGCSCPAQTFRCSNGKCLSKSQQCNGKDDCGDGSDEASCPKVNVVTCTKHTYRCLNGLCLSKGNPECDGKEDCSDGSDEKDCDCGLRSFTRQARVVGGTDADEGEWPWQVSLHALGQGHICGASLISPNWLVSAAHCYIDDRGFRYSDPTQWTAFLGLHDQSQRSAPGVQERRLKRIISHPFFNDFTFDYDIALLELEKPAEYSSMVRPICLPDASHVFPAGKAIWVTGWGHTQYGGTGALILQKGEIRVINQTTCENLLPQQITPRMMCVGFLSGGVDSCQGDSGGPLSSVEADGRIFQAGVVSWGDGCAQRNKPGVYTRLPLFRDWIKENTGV
# [4] = biological target: cellular TMPRSS2 activity, Caco-2 cells (Homo sapiens, UniProt O15393); conditions: for cellular protease activity on Caco-2 cells, Mean (Fig. 4a): normalized, 0 nM = 100
# Protocol: In total, 10,000 Caco-2 cells (ATCC) in 100 µL EMEM medium supplemented with 10% FBS, 100 U/mL penicillin, […] streptomycin, and 2 mM glutamine (all Invitrogen, Germany) were seeded per well in a 96-well plate and incubated at 37 °C for 4 days until full confluency of the cells. The cells were washed two times with PBS and EMEM medium without FBS was added. […] The fluorescence intensity was measured as described above. In all, 20,000 HEK293T cells (ATCC) were seeded in 100 µL DMEM supplemented with 10% FBS, 100 U/mL penicillin, […] streptomycin, and 2 mM glutamine. […] After 14 h, transfection mix was removed from the cells and 80 µL fresh medium without FBS and 10 µL inhibitors were added (final concentration 50 µM). […] Fluorescence intensity was measured after 2 h at 37 °C as described above.
# [5] = test system: lentiviral pseudoparticles carrying SARS-CoV-2 Delta (B.1.617.2) spike, Caco-2 cells; assay type: cell-based; conditions: for SARS-CoV-2 spike driven entry, Mean (0 nM = 100): Fig. 5d
# [6] = test system: lentiviral pseudoparticles carrying SARS-CoV-2 Alpha (B.1.1.7) spike, Caco-2 cells; assay type: cell-based; conditions: for SARS-CoV-2 spike driven entry, Mean (0 nM = 100): Fig. 5b
# Sequence of cellular TMPRSS2 activity, Caco-2 cells (O15393 whole entry): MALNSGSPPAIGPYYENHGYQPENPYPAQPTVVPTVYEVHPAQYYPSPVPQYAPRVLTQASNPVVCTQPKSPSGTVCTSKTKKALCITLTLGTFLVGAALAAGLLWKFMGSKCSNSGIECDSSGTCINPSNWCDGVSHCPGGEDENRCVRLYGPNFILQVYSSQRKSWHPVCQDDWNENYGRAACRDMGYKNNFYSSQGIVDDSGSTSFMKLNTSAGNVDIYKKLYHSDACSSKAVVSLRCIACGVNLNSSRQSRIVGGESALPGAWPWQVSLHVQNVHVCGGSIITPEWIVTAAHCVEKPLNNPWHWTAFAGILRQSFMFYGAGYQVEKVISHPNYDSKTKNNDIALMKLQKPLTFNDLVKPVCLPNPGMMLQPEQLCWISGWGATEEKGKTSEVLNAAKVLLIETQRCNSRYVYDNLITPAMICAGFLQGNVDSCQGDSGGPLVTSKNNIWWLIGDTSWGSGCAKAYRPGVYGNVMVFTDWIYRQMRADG
# Sequence of TMPRSS2 (O15393 whole entry): as above
substance,measurement,setting,value
ace-Arg-Pro-Arg-kbt [Compound 2],"SARS-CoV-2 infection, Mean (0 nM = 100)",[1]; compound 32 nM,90.9628
same,"SARS-CoV-2 infection, Mean (0 nM = 100)",[1]; compound 160 nM,88.9778
same,"SARS-CoV-2 infection, Mean (0 nM = 100)",[1]; compound 800 nM,79.0008
same,"SARS-CoV-2 infection, Mean (0 nM = 100)",[1]; compound 4000 nM,83.4908
same,"SARS-CoV-2 infection, Mean (0 nM = 100)",[1]; compound 20000 nM,3.338
same,"SARS-CoV-2 infection, Mean (0 nM = 100)",[1]; compound 100000 nM,-2.162
same,IC50,[1]; read-out: IC50 SARS-CoV-2 Beta,6.88 µM
same,"Residual TMPRSS2 activity, Mean (0 nM = 100)","[2]; inhibitor 0.0167 nM, 0 min in cell culture medium",98.9717
same,"Residual TMPRSS2 activity, Mean (0 nM = 100)","[2]; inhibitor 0.0167 nM, 30 min in cell culture medium",101.323
same,"Residual TMPRSS2 activity, Mean (0 nM = 100)","[2]; inhibitor 0.0167 nM, 60 min in cell culture medium",96.8723
same,"Residual TMPRSS2 activity, Mean (0 nM = 100)","[2]; inhibitor 0.0167 nM, 120 min in cell culture medium",98.5343
same,"Residual TMPRSS2 activity, Mean (0 nM = 100)","[2]; inhibitor 0.0167 nM, 24 h in cell culture medium",98.1961
same,"Residual TMPRSS2 activity, Mean (0 nM = 100)","[2]; inhibitor 0.0167 nM, 10 d in cell culture medium",98.4437
same,"Residual TMPRSS2 activity, Mean (0 nM = 100)","[2]; inhibitor 0.0167 nM, positive ctrl",97.6368
same,"Residual TMPRSS2 activity, Mean (0 nM = 100)","[2]; inhibitor 0.167 nM, 0 min in cell culture medium",100.63
same,"Residual TMPRSS2 activity, Mean (0 nM = 100)","[2]; inhibitor 0.167 nM, 30 min in cell culture medium",100.761
same,"Residual TMPRSS2 activity, Mean (0 nM = 100)","[2]; inhibitor 0.167 nM, 60 min in cell culture medium",103.84
same,"Residual TMPRSS2 activity, Mean (0 nM = 100)","[2]; inhibitor 0.167 nM, 120 min in cell culture medium",96.4654
same,"Residual TMPRSS2 activity, Mean (0 nM = 100)","[2]; inhibitor 0.167 nM, 24 h in cell culture medium",97.7945
same,"Residual TMPRSS2 activity, Mean (0 nM = 100)","[2]; inhibitor 0.167 nM, 10 d in cell culture medium",101.036
same,"Residual TMPRSS2 activity, Mean (0 nM = 100)","[2]; inhibitor 0.167 nM, positive ctrl",98.5654
same,"Residual TMPRSS2 activity, Mean (0 nM = 100)","[2]; inhibitor 1.665 nM, 0 min in cell culture medium",97.2536
same,"Residual TMPRSS2 activity, Mean (0 nM = 100)","[2]; inhibitor 1.665 nM, 30 min in cell culture medium",96.1305
same,"Residual TMPRSS2 activity, Mean (0 nM = 100)","[2]; inhibitor 1.665 nM, 60 min in cell culture medium",95.956
same,"Residual TMPRSS2 activity, Mean (0 nM = 100)","[2]; inhibitor 1.665 nM, 120 min in cell culture medium",95.462
same,"Residual TMPRSS2 activity, Mean (0 nM = 100)","[2]; inhibitor 1.665 nM, 24 h in cell culture medium",97.8646
same,"Residual TMPRSS2 activity, Mean (0 nM = 100)","[2]; inhibitor 1.665 nM, 10 d in cell culture medium",97.0442
same,"Residual TMPRSS2 activity, Mean (0 nM = 100)","[2]; inhibitor 1.665 nM, positive ctrl",88.6541
same,"Residual TMPRSS2 activity, Mean (0 nM = 100)","[2]; inhibitor 16.65 nM, 0 min in cell culture medium",83.5545
same,"Residual TMPRSS2 activity, Mean (0 nM = 100)","[2]; inhibitor 16.65 nM, 30 min in cell culture medium",80.8705
same,"Residual TMPRSS2 activity, Mean (0 nM = 100)","[2]; inhibitor 16.65 nM, 60 min in cell culture medium",72.3193
same,"Residual TMPRSS2 activity, Mean (0 nM = 100)","[2]; inhibitor 16.65 nM, 120 min in cell culture medium",83.5842
same,"Residual TMPRSS2 activity, Mean (0 nM = 100)","[2]; inhibitor 16.65 nM, 24 h in cell culture medium",87.4426
same,"Residual TMPRSS2 activity, Mean (0 nM = 100)","[2]; inhibitor 16.65 nM, 10 d in cell culture medium",88.0057
same,"Residual TMPRSS2 activity, Mean (0 nM = 100)","[2]; inhibitor 16.65 nM, positive ctrl",59.7774
same,"Residual TMPRSS2 activity, Mean (0 nM = 100)","[2]; inhibitor 166.5 nM, 0 min in cell culture medium",18.9266
same,"Residual TMPRSS2 activity, Mean (0 nM = 100)","[2]; inhibitor 166.5 nM, 30 min in cell culture medium",17.6545
same,"Residual TMPRSS2 activity, Mean (0 nM = 100)","[2]; inhibitor 166.5 nM, 60 min in cell culture medium",24.0301
same,"Residual TMPRSS2 activity, Mean (0 nM = 100)","[2]; inhibitor 166.5 nM, 120 min in cell culture medium",22.2899
same,"Residual TMPRSS2 activity, Mean (0 nM = 100)","[2]; inhibitor 166.5 nM, 24 h in cell culture medium",22.0487
same,"Residual TMPRSS2 activity, Mean (0 nM = 100)","[2]; inhibitor 166.5 nM, 10 d in cell culture medium",39.6688
same,"Residual TMPRSS2 activity, Mean (0 nM = 100)","[2]; inhibitor 166.5 nM, positive ctrl",18.9416
same,"Residual TMPRSS2 activity, Mean (0 nM = 100)","[2]; inhibitor 1665 nM, 0 min in cell culture medium",-1.499
same,"Residual TMPRSS2 activity, Mean (0 nM = 100)","[2]; inhibitor 1665 nM, 30 min in cell culture medium",5.536
same,"Residual TMPRSS2 activity, Mean (0 nM = 100)","[2]; inhibitor 1665 nM, 60 min in cell culture medium",0.2889
same,"Residual TMPRSS2 activity, Mean (0 nM = 100)","[2]; inhibitor 1665 nM, 120 min in cell culture medium",-1.86
same,"Residual TMPRSS2 activity, Mean (0 nM = 100)","[2]; inhibitor 1665 nM, 24 h in cell culture medium",-0.886
same,"Residual TMPRSS2 activity, Mean (0 nM = 100)","[2]; inhibitor 1665 nM, 10 d in cell culture medium",10.1282
same,"Residual TMPRSS2 activity, Mean (0 nM = 100)","[2]; inhibitor 1665 nM, positive ctrl",0.02381
same,"matriptase activity, Mean (Fig. 2b)",[3]; 0.1 nM,101.198
same,"matriptase activity, Mean (Fig. 2b)",[3]; 0.2 nM,106.445
same,"matriptase activity, Mean (Fig. 2b)",[3]; 1 nM,70.3881
same,"matriptase activity, Mean (Fig. 2b)",[3]; 10 nM,45.9032
same,"matriptase activity, Mean (Fig. 2b)",[3]; 100 nM,8.529
same,"matriptase activity, Mean (Fig. 2b)",[3]; 1000 nM,0.7667
same,"matriptase activity, Mean (Fig. 2b)",[3]; 50000 nM,-0.2875
same,"matriptase activity, Mean (Fig. 2b)",[3]; 500000 nM,-0.6229
same,Ki,"[3]; 30 min preincubation, substrate Boc-Gln-Ala-Arg-AMC",0.0033 µM
same,Selectivity index Matriptase,[3]; quotient Ki matriptase / Ki TMPRSS2,0.9
same,"cellular protease activity on Caco-2 cells, Mean (Fig. 4a)",[4]; 0.1 nM,109.802
same,"cellular protease activity on Caco-2 cells, Mean (Fig. 4a)",[4]; 1 nM,82.1942
same,"cellular protease activity on Caco-2 cells, Mean (Fig. 4a)",[4]; 10 nM,70.6835
same,"cellular protease activity on Caco-2 cells, Mean (Fig. 4a)",[4]; 100 nM,32.9137
same,"cellular protease activity on Caco-2 cells, Mean (Fig. 4a)",[4]; 1000 nM,-3.058
same,"cellular protease activity on Caco-2 cells, Mean (Fig. 4a)",[4]; 10000 nM,1.349
same,"cellular protease activity on Caco-2 cells, Mean (Fig. 4a)",[4]; 100000 nM,2.158
same,IC50,"[4]; read-out: IC50 Caco2, cell-mediated proteolysis of Boc-Gln-Ala-Arg-AMC, 30 min preincubation",0.032 µM
same,IC50,"[5]; Caco-2 cells, luciferase 2 days post transduction, read-out: IC50 pseudotyped lentivirus Delta",0.627 µM
same,"SARS-CoV-2 spike driven entry, Mean (0 nM = 100)",[5]; compound 3.2 nM,94.6384
same,"SARS-CoV-2 spike driven entry, Mean (0 nM = 100)",[5]; compound 16 nM,93.9983
same,"SARS-CoV-2 spike driven entry, Mean (0 nM = 100)",[5]; compound 80 nM,82.6624
same,"SARS-CoV-2 spike driven entry, Mean (0 nM = 100)",[5]; compound 400 nM,60.9224
same,"SARS-CoV-2 spike driven entry, Mean (0 nM = 100)",[5]; compound 2000 nM,29.6704
same,"SARS-CoV-2 spike driven entry, Mean (0 nM = 100)",[5]; compound 10000 nM,4.245
same,"SARS-CoV-2 spike driven entry, Mean (0 nM = 100)",[5]; compound 50000 nM,0.86
same,IC50,"[6]; Caco-2 cells, luciferase 2 days post transduction, read-out: IC50 pseudotyped lentivirus Alpha",0.391 µM
same,"SARS-CoV-2 spike driven entry, Mean (0 nM = 100)",[6]; compound 3.2 nM,80.3695
same,"SARS-CoV-2 spike driven entry, Mean (0 nM = 100)",[6]; compound 16 nM,86.8245
same,"SARS-CoV-2 spike driven entry, Mean (0 nM = 100)",[6]; compound 80 nM,66.7955
same,"SARS-CoV-2 spike driven entry, Mean (0 nM = 100)",[6]; compound 400 nM,63.0945
same,"SARS-CoV-2 spike driven entry, Mean (0 nM = 100)",[6]; compound 2000 nM,24.7885
same,"SARS-CoV-2 spike driven entry, Mean (0 nM = 100)",[6]; compound 10000 nM,4.5995
same,"SARS-CoV-2 spike driven entry, Mean (0 nM = 100)",[6]; compound 50000 nM,0.953
